Assays:
Staphylococcus xylosus = assay: Mixed culture experiment (bacterially contaminated cell culture), bacteria; assay type: cell-based; details: 25 and 50 μM peptide, two hours, with U937
Protocol: (§1) Destruction of the bacteria membranes by the antimicrobial peptides was investigated in a flow cytometric method with the help of a living/dead staining method in combination with an internal calibration and counting system. For this purpose, SYBR Green I (Sigma-Aldrich) was used as total staining and propidium iodide (Sigma-Aldrich) was used as contrast staining for membrane-damaged bacteria. […] The flow analysis was carried out on a Cytomics FC500 Instrument (Beckmann Coulter, Munich, Germany) equipped with an argon laser (488 nm) and the corresponding emission filters for SYBR Green I (525 nm) and propidium iodide (620 nm). […] Then, the mixture was incubated for 10 min in the dark at room temperature and then measured by flow cytometry. The number of events in each gate was captured and evaluated using the CXP Analyses 2.2 Software. The total number of living and dead bacteria was calculated. […]
(§2) The ability of the antimicrobial peptides to be used as a therapeutic active ingredient was investigated by reference to its selective antimicrobial properties in model mixed culture experiments. […] Then, the mixed cell cultures were stained and measured by flow cytometry as described in example 3, the measurement scale being adapted to the measurement of the larger eukaryotic cells.

human cell line U937 = assay: Mixed culture experiment (bacterially contaminated cell culture), eukaryotic cells; assay type: cell-based; details: 25 and 50 μM peptide, two hours, with S. xylosus
Protocol: as §1, §2

SMILES: CC[C@H](C)[C@H](NC(=O)CN)C(=O)NCC(=O)N[C@@H](C)C(=O)N[C@H](C(=O)N[C@@H](CC(C)C)C(=O)N[C@@H](CCCCN)C(=O)N[C@H](C(=O)N[C@@H](CC(C)C)C(=O)N[C@H](C(=O)N[C@H](C(=O)NCC(=O)N[C@@H](CC(C)C)C(=O)N1CCC[C@H]1C(=O)N[C@@H](C)C(=O)N[C@@H](CC(C)C)C(=O)N[C@H](C(=O)N[C@@H](CO)C(=O)N[C@@H](Cc1c[nH]c2ccccc12)C(=O)N[C@H](C(=O)N[C@@H](CCCCN)C(=O)N[C@@H](CCCNC(=N)N)C(=O)N[C@@H](CCCCN)C(=O)N[C@@H](CCCNC(=N)N)C(=O)N[C@@H](CCC(N)=O)C(=O)N[C@@H](CCC(N)=O)C(N)=O)[C@@H](C)CC)[C@@H](C)CC)[C@@H](C)O)[C@@H](C)O)C(C)C)C(C)C [Melittin]
- Killing of S. xylosus cells in mixed culture (Staphylococcus xylosus): comprehensive killing of bacteria cells
- Effect on eukaryotic U937 cells in mixed culture (human cell line U937): destroys all of the eukaryotic U937 cells

Source: patent US10556926B2, “Synthetic artificial peptides with antimicrobial effect” (priority 2014, dated 2020)
